The numbers were not newly measured in patent publication US20220265670A1, “COMPOSITION AND USE THEREOF FOR THE TREATMENT OF CUTANEOUS MASTOCYTOSIS” (AC BIOSCIENCE SA, priority 2019, published 2022), which cites them from elsewhere.

For one data set, the target named is c-Kit (Homo sapiens, UniProt P10721).
For a further data set, the system named is mast degranulation. The settings on record: low masitinib concentrations.
Data set [1] concerns JM-mutated (exon 11) c-Kit. The note with it: cellular level; read-out: IC50, JM-mutated (exon 11) c-Kit-dependent cell proliferation.
The next data set concerns PDGF-R. The settings on record: cellular level; read-out: IC50, PDGF-R-dependent cell proliferation.

Sequence of c-Kit (P10721 26-976): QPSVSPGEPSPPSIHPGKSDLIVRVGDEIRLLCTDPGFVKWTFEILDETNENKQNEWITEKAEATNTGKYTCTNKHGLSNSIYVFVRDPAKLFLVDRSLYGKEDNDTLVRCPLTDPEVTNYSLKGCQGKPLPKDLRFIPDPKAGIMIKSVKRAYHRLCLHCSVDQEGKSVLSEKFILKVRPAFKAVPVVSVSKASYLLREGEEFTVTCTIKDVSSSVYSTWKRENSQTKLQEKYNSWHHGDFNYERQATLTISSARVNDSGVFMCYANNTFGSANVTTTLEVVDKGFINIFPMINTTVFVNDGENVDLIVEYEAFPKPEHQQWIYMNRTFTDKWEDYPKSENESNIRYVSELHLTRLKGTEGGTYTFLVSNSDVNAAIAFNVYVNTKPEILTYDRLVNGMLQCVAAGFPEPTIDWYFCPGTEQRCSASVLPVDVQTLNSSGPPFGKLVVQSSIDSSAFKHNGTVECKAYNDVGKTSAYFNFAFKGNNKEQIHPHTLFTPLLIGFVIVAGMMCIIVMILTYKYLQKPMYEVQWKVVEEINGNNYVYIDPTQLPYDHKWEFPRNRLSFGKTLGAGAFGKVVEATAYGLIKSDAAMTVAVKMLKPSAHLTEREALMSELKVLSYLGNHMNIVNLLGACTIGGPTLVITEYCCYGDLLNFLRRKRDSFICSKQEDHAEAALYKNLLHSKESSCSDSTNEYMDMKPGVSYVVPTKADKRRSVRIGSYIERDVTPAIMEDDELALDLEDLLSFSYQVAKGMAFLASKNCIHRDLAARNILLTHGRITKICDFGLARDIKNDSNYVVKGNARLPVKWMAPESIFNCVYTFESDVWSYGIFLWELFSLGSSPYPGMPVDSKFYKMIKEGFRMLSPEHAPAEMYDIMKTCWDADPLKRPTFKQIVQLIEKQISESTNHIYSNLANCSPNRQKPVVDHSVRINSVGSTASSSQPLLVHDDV

With `Cc1ccc(NC(=O)c2ccc(CN3CCNCC3)cc2)cc1Nc1nc(-c2cccnc2)cs1` [AB3280], the “inhibitory profile relative to masitinib” value at c-Kit was “essentially the same inhibitory profile as masitinib, even though slightly less potent than masitinib”.
Turning to `Cc1ccc(NC(=O)c2ccc(CN3CCN(C)CC3)cc2)cc1Nc1nc(-c2cccnc2)cs1` [Masitinib], the “inhibition of mast degranulation” value with mast degranulation is on record as “significant inhibition of mast degranulation”. For the same compound, the IC50 in data set [1] was 5 nM; in the data set on PDGF-R it was […].
